Experimental data reported in PubChem BioAssay AID1259407 (Chemical Carcinogenesis Research Information System (CCRIS), 2018).
The source made the active and inactive calls. No rule for the calls is given here.

System: CCRIS mutagenicity, Ames/micronucleus/aberration tests
Assay: CCRIS mutagenicity studies
[1] = Test System: AMES SALMONELLA TYPHIMURIUM, Strain/Indicator: TA100, Metabolic Activation: NONE, Method: PREINCUBATION
[2] = Test System: AMES SALMONELLA TYPHIMURIUM, Strain/Indicator: TA102, Metabolic Activation: NONE, Method: PREINCUBATION
[3] = Test System: AMES SALMONELLA TYPHIMURIUM, Strain/Indicator: TA98, Metabolic Activation: NONE, Method: STANDARD PLATE
[4] = Test System: AMES SALMONELLA TYPHIMURIUM, Strain/Indicator: TA98, Metabolic Activation: RAT, LIVER, S-9, AROCLOR 1254, Method: STANDARD PLATE
[5] = Test System: AMES SALMONELLA TYPHIMURIUM, Strain/Indicator: TA100, Metabolic Activation: NONE, Method: STANDARD PLATE
[6] = Test System: AMES SALMONELLA TYPHIMURIUM, Strain/Indicator: TA100, Metabolic Activation: RAT, LIVER, S-9, AROCLOR 1254, Method: STANDARD PLATE
[7] = Test System: AMES SALMONELLA TYPHIMURIUM, Strain/Indicator: TA98, Metabolic Activation: NONE, Method: PREINCUBATION
[8] = Test System: AMES SALMONELLA TYPHIMURIUM, Strain/Indicator: TA1537, Metabolic Activation: NONE, Method: STANDARD PLATE

SMILES: CN(C)c1ccc(N=Nc2cccc3ccccc23)cc1
- mutagenic call (Test System: AMES SALMONELLA TYPHIMURIUM, Strain/Indicator: TA98, Metabolic Activation: HAMSTER, LIVER, S-9, AROCLOR 1254, Method: STANDARD PLATE): active; positive
- mutagenic call (Test System: AMES SALMONELLA TYPHIMURIUM, Strain/Indicator: TA98, Metabolic Activation: HAMSTER, LIVER, S-9, Method: PREINCUBATION (PRIVAL METHOD)): active; positive
- mutagenic call (Test System: AMES SALMONELLA TYPHIMURIUM, Strain/Indicator: TA98, Metabolic Activation: RAT, LIVER, S-9, AROCLOR 1254, HAMSTER, LIVER, S-9, AROCLOR 1254, Method: STANDARD PLATE): active; positive
- mutagenic call (Test System: AMES SALMONELLA TYPHIMURIUM, Strain/Indicator: TA100, Metabolic Activation: HAMSTER, LIVER, S-9, AROCLOR 1254, Method: STANDARD PLATE): active; positive
- mutagenic call (Test System: AMES SALMONELLA TYPHIMURIUM, Strain/Indicator: TA100, Metabolic Activation: HAMSTER, LIVER, S-9, Method: PREINCUBATION (PRIVAL METHOD)): active; positive
- mutagenic call (Test System: AMES SALMONELLA TYPHIMURIUM, Strain/Indicator: TA1535, Metabolic Activation: RAT, LIVER, S-9, AROCLOR 1254, HAMSTER, LIVER, S-9, AROCLOR 1254, Method: STANDARD PLATE): active; positive
- mutagenic call (Test System: AMES SALMONELLA TYPHIMURIUM, Strain/Indicator: TA1538, Metabolic Activation: RAT, LIVER, S-9, AROCLOR 1254, HAMSTER, LIVER, S-9, AROCLOR 1254, Method: STANDARD PLATE): active; positive
- mutagenic call (Test System: MOUSE LYMPHOMA, Strain/Indicator: L5178Y (TK+/TK-), Metabolic Activation: RAT, LIVER, S-9, AROCLOR 1254, Method: SUSPENSION/PLATE): active; positive. reevaluation of results: positive
- mutagenic call (Test System: Mouse lymphoma, Strain/Indicator: L5178Y (tk+/tk-), Metabolic Activation: None, Method: Suspension/plate): active; positive

SMILES: CC(O)CC(=O)Nc1ccc(O)cc1 (stereo not given)
- mutagenic call (Test System: AMES SALMONELLA TYPHIMURIUM, Strain/Indicator: TA100, Metabolic Activation: HAMSTER, LIVER, S-9, KANECHLOR 400, Method: PREINCUBATION): inactive; negative
- mutagenic call [1]: inactive; negative

SMILES: CCOC(=O)CC(C)C
- mutagenic call (Test System: AMES SALMONELLA TYPHIMURIUM, Strain/Indicator: TA97, Metabolic Activation: NONE, Method: PREINCUBATION): inactive; negative
- mutagenic call (Test System: AMES SALMONELLA TYPHIMURIUM, Strain/Indicator: TA97, Metabolic Activation: RAT, LIVER, S-9, AROCLOR 1254, Method: PREINCUBATION): inactive; negative
- mutagenic call [2]: inactive; negative
- mutagenic call (Test System: AMES SALMONELLA TYPHIMURIUM, Strain/Indicator: TA102, Metabolic Activation: RAT, LIVER, S-9, AROCLOR 1254, Method: PREINCUBATION): inactive; negative

SMILES: O=C(c1ccc(F)cc1)[C@@H]1O[C@@H]1c1ccccc1
- mutagenic call [3]: inactive; negative
- mutagenic call [4]: inactive; negative
- mutagenic call [5]: active; positive
- mutagenic call [6]: inactive; negative

SMILES: COc1ccc(NC(C)=O)cc1N
- mutagenic call (End Point: IN VITRO CHROMOSOMAL ABERRATIONS, Test System: CHL CELLS, Metabolic Activation: RAT, LIVER, S-9, SODIUM PHENOBARBITAL AND 5,6-BENZOFLAVONE): active; positive (structural changes); authors report equivocal results for ploidy chang
- mutagenic call [7]: inactive; negative
- mutagenic call (Test System: AMES SALMONELLA TYPHIMURIUM, Strain/Indicator: TA98, Metabolic Activation: RAT, LIVER, S-9, PHENOBARBITAL AND BETA-NAPHTHOFLAVONE, Method: PREINCUBATION): active; positive
- mutagenic call [1]: inactive; negative
- mutagenic call (Test System: AMES SALMONELLA TYPHIMURIUM, Strain/Indicator: TA100, Metabolic Activation: RAT, LIVER, S-9, PHENOBARBITAL AND BETA-NAPHTHOFLAVONE, Method: PREINCUBATION): active; positive

SMILES: N[C@@H](CCC(=O)N[C@@H](CSN=O)C(=O)NCC(=O)O)C(=O)O
- mutagenic call [1]: active; positive
- mutagenic call (Test System: AMES SALMONELLA TYPHIMURIUM, Strain/Indicator: TA100, Metabolic Activation: RAT, LIVER, S-9, AROCLOR, Method: PREINCUBATION): active; positive
- mutagenic call [2]: active; positive

SMILES: CNc1ccc2ncccc2c1N
- mutagenic call [7]: inactive; negative
- mutagenic call (Test System: AMES SALMONELLA TYPHIMURIUM, Strain/Indicator: TA98, Metabolic Activation: RAT, LIVER, S-9, AROCLOR 1254, Method: PREINCUBATION): inactive; negative
- mutagenic call [1]: inactive; negative
- mutagenic call (Test System: AMES SALMONELLA TYPHIMURIUM, Strain/Indicator: TA100, Metabolic Activation: RAT, LIVER, S-9, AROCLOR 1254, Method: PREINCUBATION): inactive; negative

SMILES: CC(=O)ON(OCc1ccc(Cl)cc1)C(=O)c1ccccc1
- mutagenic call [5]: active; positive
- mutagenic call (Test System: AMES SALMONELLA TYPHIMURIUM, Strain/Indicator: TA100, Metabolic Activation: RAT, S-9, AROCLOR, Method: STANDARD PLATE): active; positive

SMILES: COC(=O)[C@H](C)CN=[N+]=[N-]
- mutagenic call (Test System: AMES SALMONELLA TYPHIMURIUM, Strain/Indicator: TA100, Metabolic Activation: RAT, LIVER, S-9, PCB, Method: PREINCUBATION): active; positive

SMILES: Cc1cc(C)nc(SC(=O)OC(C)(C)C)n1
- mutagenic call [3]: inactive; negative
- mutagenic call [4]: inactive; negative
- mutagenic call [5]: inactive; negative
- mutagenic call [6]: inactive; negative
- mutagenic call (Test System: AMES SALMONELLA TYPHIMURIUM, Strain/Indicator: TA1535, Metabolic Activation: NONE, Method: STANDARD PLATE): inactive; negative
- mutagenic call (Test System: AMES SALMONELLA TYPHIMURIUM, Strain/Indicator: TA1535, Metabolic Activation: RAT, LIVER, S-9, AROCLOR 1254, Method: STANDARD PLATE): inactive; negative
- mutagenic call [8]: inactive; negative
- mutagenic call (Test System: AMES SALMONELLA TYPHIMURIUM, Strain/Indicator: TA1537, Metabolic Activation: RAT, LIVER, S-9, AROCLOR 1254, Method: STANDARD PLATE): inactive; negative

SMILES: CC1=C[C@]2(O[C@@H]3O[C@H](CO)[C@@H](O)[C@H](O)[C@H]3O)C[C@@H](C)C(=O)[C@@H]2[C@](C)(O)C12CC2
- mutagenic call [7]: active; positive
- mutagenic call (Test System: AMES SALMONELLA TYPHIMURIUM, Strain/Indicator: TA98, Metabolic Activation: NONE, Method: PREINCUBATION (PH 7.4)): inactive; negative
- mutagenic call (Test System: AMES SALMONELLA TYPHIMURIUM, Strain/Indicator: TA98, Metabolic Activation: NONE, Method: PREINCUBATION (PH 8.5)): active; positive
- mutagenic call (Test System: AMES SALMONELLA TYPHIMURIUM, Strain/Indicator: TA98, Metabolic Activation: S-9, Method: PREINCUBATION (PH 7.4)): inactive; negative
- mutagenic call [1]: active; positive
- mutagenic call (Test System: AMES SALMONELLA TYPHIMURIUM, Strain/Indicator: TA100, Metabolic Activation: NONE, Method: PREINCUBATION (PH 7.4)): inactive; negative
- mutagenic call (Test System: AMES SALMONELLA TYPHIMURIUM, Strain/Indicator: TA100, Metabolic Activation: NONE, Method: PREINCUBATION (PH 8.5)): active; positive
- mutagenic call (Test System: AMES SALMONELLA TYPHIMURIUM, Strain/Indicator: TA100, Metabolic Activation: S-9, Method: PREINCUBATION (PH 7.4)): inactive; negative
- mutagenic call (Test System: UDS RAT HEPATOCYTES, Strain/Indicator: THY INCORP, Metabolic Activation: NONE, Method: AUTORADIOGRAPHY): active; positive

SMILES: O=C(Nc1snc2ccccc12)c1ccccc1
- mutagenic call [5]: inactive; negative
- mutagenic call (Test System: AMES SALMONELLA TYPHIMURIUM, Strain/Indicator: TA100, Metabolic Activation: S-9, Method: STANDARD PLATE): active; positive
- mutagenic call [8]: inactive; negative
- mutagenic call (Test System: AMES SALMONELLA TYPHIMURIUM, Strain/Indicator: TA1537, Metabolic Activation: S-9, Method: STANDARD PLATE): inactive; negative
